The source made the active and inactive calls. The rule behind the calls is not given here.
Tested on: CCRIS mutagenicity, Ames/micronucleus/aberration tests
Assay: CCRIS mutagenicity studies
[1] = Test System: AMES SALMONELLA TYPHIMURIUM, Strain/Indicator: TA98, Metabolic Activation: NONE, Method: PREINCUBATION
[2] = Test System: AMES SALMONELLA TYPHIMURIUM, Strain/Indicator: TA100, Metabolic Activation: NONE, Method: PREINCUBATION
[3] = Test System: AMES SALMONELLA TYPHIMURIUM, Strain/Indicator: TA102, Metabolic Activation: NONE, Method: PREINCUBATION
[4] = Test System: AMES SALMONELLA TYPHIMURIUM, Strain/Indicator: TA104, Metabolic Activation: NONE, Method: PREINCUBATION
[5] = Test System: AMES SALMONELLA TYPHIMURIUM, Strain/Indicator: TA1535, Metabolic Activation: NONE, Method: PREINCUBATION
[6] = Test System: AMES SALMONELLA TYPHIMURIUM, Strain/Indicator: TA1537, Metabolic Activation: NONE, Method: PREINCUBATION

Compound: C=CC(=O)NCO
- mutagenic call (Test System: AMES SALMONELLA TYPHIMURIUM, Strain/Indicator: TA97, Metabolic Activation: HAMSTER, LIVER, S-9, AROCLOR 1254 (10%), Method: PREINCUBATION): inactive; negative
- mutagenic call (Test System: AMES SALMONELLA TYPHIMURIUM, Strain/Indicator: TA97, Metabolic Activation: HAMSTER, LIVER, S-9, AROCLOR 1254 (10 OR 30%), Method: PREINCUBATION): inactive; negative
- mutagenic call (Test System: AMES SALMONELLA TYPHIMURIUM, Strain/Indicator: TA97, Metabolic Activation: HAMSTER, LIVER, S-9, AROCLOR 1254 (30%), Method: PREINCUBATION): inactive; negative
- mutagenic call (Test System: AMES SALMONELLA TYPHIMURIUM, Strain/Indicator: TA97, Metabolic Activation: NONE, Method: PREINCUBATION): inactive; negative
- mutagenic call (Test System: AMES SALMONELLA TYPHIMURIUM, Strain/Indicator: TA97, Metabolic Activation: RAT, LIVER, S-9, AROCLOR 1254 (10% OR 30%), Method: PREINCUBATION): inactive; negative
- mutagenic call (Test System: AMES SALMONELLA TYPHIMURIUM, Strain/Indicator: TA97, Metabolic Activation: RAT, LIVER, S-9, AROCLOR 1254 (10 OR 30%), Method: PREINCUBATION): inactive; negative
- mutagenic call (Test System: AMES SALMONELLA TYPHIMURIUM, Strain/Indicator: TA98, Metabolic Activation: HAMSTER, LIVER, S-9, AROCLOR 1254 (10% OR 30%), Method: PREINCUBATION): inactive; negative
- mutagenic call (Test System: AMES SALMONELLA TYPHIMURIUM, Strain/Indicator: TA98, Metabolic Activation: HAMSTER, LIVER, S-9, AROCLOR 1254 (10 OR 30%), Method: PREINCUBATION): inactive; negative
- mutagenic call [1]: inactive; negative
- mutagenic call (Test System: AMES SALMONELLA TYPHIMURIUM, Strain/Indicator: TA98, Metabolic Activation: RAT, LIVER, S-9, AROCLOR 1254 (10% OR 30%), Method: PREINCUBATION): inactive; negative
- mutagenic call (Test System: AMES SALMONELLA TYPHIMURIUM, Strain/Indicator: TA98, Metabolic Activation: RAT, LIVER, S-9, AROCLOR 1254 (10 OR 30%), Method: PREINCUBATION): inactive; negative
- mutagenic call (Test System: AMES SALMONELLA TYPHIMURIUM, Strain/Indicator: TA98, Metabolic Activation: RAT, LIVER, S-9, PHENOBARBITAL AND BETA-NAPHTHOFLAVONE, Method: PREINCUBATION): inactive; negative
- mutagenic call (Test System: AMES SALMONELLA TYPHIMURIUM, Strain/Indicator: TA100, Metabolic Activation: HAMSTER, LIVER, S-9, AROCLOR 1254 (10% OR 30%), Method: PREINCUBATION): inactive; negative
- mutagenic call (Test System: AMES SALMONELLA TYPHIMURIUM, Strain/Indicator: TA100, Metabolic Activation: HAMSTER, LIVER, S-9, AROCLOR 1254 (10 OR 30%), Method: PREINCUBATION): inactive; negative
- mutagenic call [2]: inactive; negative
- mutagenic call (Test System: AMES SALMONELLA TYPHIMURIUM, Strain/Indicator: TA100, Metabolic Activation: RAT, LIVER, S-9, AROCLOR 1254 (10% OR 30%), Method: PREINCUBATION): inactive; negative
- mutagenic call (Test System: AMES SALMONELLA TYPHIMURIUM, Strain/Indicator: TA100, Metabolic Activation: RAT, LIVER, S-9, AROCLOR 1254 (10 OR 30%), Method: PREINCUBATION): inactive; negative
- mutagenic call (Test System: AMES SALMONELLA TYPHIMURIUM, Strain/Indicator: TA100, Metabolic Activation: RAT, LIVER, S-9, PHENOBARBITAL AND BETA-NAPHTHOFLAVONE, Method: PREINCUBATION): inactive; negative
- mutagenic call [3]: inactive; negative
- mutagenic call (Test System: AMES SALMONELLA TYPHIMURIUM, Strain/Indicator: TA102, Metabolic Activation: RAT, LIVER, S-9, PHENOBARBITAL AND BETA-NAPHTHOFLAVONE, Method: PREINCUBATION): inactive; negative
- mutagenic call [4]: inactive; negative
- mutagenic call (Test System: AMES SALMONELLA TYPHIMURIUM, Strain/Indicator: TA104, Metabolic Activation: RAT, LIVER, S-9, PHENOBARBITAL AND BETA-NAPHTHOFLAVONE, Method: PREINCUBATION): inactive; negative
- mutagenic call (Test System: AMES SALMONELLA TYPHIMURIUM, Strain/Indicator: TA1535, Metabolic Activation: HAMSTER, LIVER, S-9, AROCLOR 1254 (10% OR 30%), Method: PREINCUBATION): inactive; negative
- mutagenic call (Test System: AMES SALMONELLA TYPHIMURIUM, Strain/Indicator: TA1535, Metabolic Activation: HAMSTER, LIVER, S-9, AROCLOR 1254 (10 OR 30%), Method: PREINCUBATION): inactive; negative
- mutagenic call [5]: inactive; negative
- mutagenic call (Test System: AMES SALMONELLA TYPHIMURIUM, Strain/Indicator: TA1535, Metabolic Activation: RAT, LIVER, S-9, AROCLOR 1254 (10% OR 30%), Method: PREINCUBATION): inactive; negative
- mutagenic call (Test System: AMES SALMONELLA TYPHIMURIUM, Strain/Indicator: TA1535, Metabolic Activation: RAT, LIVER, S-9, AROCLOR 1254 (10 OR 30%), Method: PREINCUBATION): inactive; negative
- mutagenic call (Test System: AMES SALMONELLA TYPHIMURIUM, Strain/Indicator: TA1535, Metabolic Activation: RAT, LIVER, S-9, PHENOBARBITAL AND BETA-NAPHTHOFLAVONE, Method: PREINCUBATION): inactive; negative
- mutagenic call [6]: inactive; negative
- mutagenic call (Test System: AMES SALMONELLA TYPHIMURIUM, Strain/Indicator: TA1537, Metabolic Activation: RAT, LIVER, S-9, PHENOBARBITAL AND BETA-NAPHTHOFLAVONE, Method: PREINCUBATION): inactive; negative
- mutagenic call (Test System: E. COLI, Strain/Indicator: WP2UVRA/PKM101, Metabolic Activation: NONE, Method: PREINCUBATION): inactive; negative
- mutagenic call (Test System: E. COLI, Strain/Indicator: WP2UVRA/PKM101, Metabolic Activation: RAT, LIVER, S-9, PHENOBARBITAL AND BETA-NAPHTHOFLAVONE, Method: PREINCUBATION): inactive; negative
- mutagenic call (Test System: E. COLI, Strain/Indicator: WP2UVRA, Metabolic Activation: NONE, Method: PREINCUBATION): inactive; negative
- mutagenic call (Test System: E. COLI, Strain/Indicator: WP2UVRA, Metabolic Activation: RAT, LIVER, S-9, PHENOBARBITAL AND BETA-NAPHTHOFLAVONE, Method: PREINCUBATION): inactive; negative

Compound: COC(=O)c1cc(Cc2ccc(N)c(C(=O)OC)c2)ccc1N
- mutagenic call [1]: inactive; negative
- mutagenic call (Test System: AMES SALMONELLA TYPHIMURIUM, Strain/Indicator: TA98, Metabolic Activation: RAT, LIVER, S-9, PCB, Method: PREINCUBATION): active; positive
- mutagenic call [2]: inactive; negative
- mutagenic call (Test System: AMES SALMONELLA TYPHIMURIUM, Strain/Indicator: TA100, Metabolic Activation: RAT, LIVER, S-9, PCB, Method: PREINCUBATION): active; positive

Compound: CCCBr
- mutagenic call (End Point: In vitro micronucleus, Test System: Chinese Hamster Ovary (CHO-WBL) cells, Metabolic Activation: None): inactive; negative
- mutagenic call [1]: inactive; negative
- mutagenic call (Test System: AMES SALMONELLA TYPHIMURIUM, Strain/Indicator: TA98, Metabolic Activation: RAT LIVER S-9, PHENOBARBITAL AND BETA-NAPHTHOFLAVONE, Method: PREINCUBATION): inactive; negative
- mutagenic call [2]: inactive; negative
- mutagenic call (Test System: AMES SALMONELLA TYPHIMURIUM, Strain/Indicator: TA100, Metabolic Activation: RAT LIVER S-9, PHENOBARBITAL AND BETA-NAPHTHOFLAVONE, Method: PREINCUBATION): inactive; negative
- mutagenic call [3]: inactive; negative
- mutagenic call (Test System: AMES SALMONELLA TYPHIMURIUM, Strain/Indicator: TA102, Metabolic Activation: RAT LIVER S-9, PHENOBARBITAL AND BETA-NAPHTHOFLAVONE, Method: PREINCUBATION): inactive; negative
- mutagenic call [4]: inactive; negative
- mutagenic call (Test System: AMES SALMONELLA TYPHIMURIUM, Strain/Indicator: TA104, Metabolic Activation: RAT LIVER S-9, PHENOBARBITAL AND BETA-NAPHTHOFLAVONE, Method: PREINCUBATION): inactive; negative
- mutagenic call [5]: inactive; negative
- mutagenic call (Test System: AMES SALMONELLA TYPHIMURIUM, Strain/Indicator: TA1535, Metabolic Activation: RAT LIVER S-9, PHENOBARBITAL AND BETA-NAPHTHOFLAVONE, Method: PREINCUBATION): inactive; negative
- mutagenic call [6]: inactive; negative
- mutagenic call (Test System: AMES SALMONELLA TYPHIMURIUM, Strain/Indicator: TA1537, Metabolic Activation: RAT LIVER S-9, PHENOBARBITAL AND BETA-NAPHTHOFLAVONE, Method: PREINCUBATION): inactive; negative
- mutagenic call (Test System: E.COLI, Strain/Indicator: WP2UVRA/PKM101, Metabolic Activation: NONE, Method: PREINCUBATION): inactive; negative
- mutagenic call (Test System: E.COLI, Strain/Indicator: WP2UVRA/PKM101, Metabolic Activation: RAT LIVER S-9, PHENOBARBITAL AND BETA-NAPHTHOFLAVONE, Method: PREINCUBATION): inactive; negative
- mutagenic call (Test System: E.COLI, Strain/Indicator: WP2UVRA, Metabolic Activation: NONE, Method: PREINCUBATION): inactive; negative
- mutagenic call (Test System: E.COLI, Strain/Indicator: WP2UVRA, Metabolic Activation: RAT LIVER S-9, PHENOBARBITAL AND BETA-NAPHTHOFLAVONE, Method: PREINCUBATION): inactive; negative
